Laboratory results published in patent US10172355B2, “Safened herbicidal compositions including 4-amino-3-chloro-5-fluoro-6-(4-chloro-2-fluoro-3-methoxyphenyl)pyridine-2-carboxylic acid or a derivative thereof for use in rice” (Dow AgroSciences LLC, priority 2012, dated 2019).
Like-named read-outs stand apart in the source and are kept apart here.

System: ECHCG=Echinochloa crus-galli
Assay: Postemergence foliar-applied herbicides and safeners, visual injury of weed
Type: in vivo
Conditions: for pest or weed control at 140 g/ha: Echinochloa crus-galli, foliar, 480 h, read-out: Visual Injury (%) - 20 DAA ECHCG Obs, foliar, Compound A form 140 g ae/ha alone; for Mean Visual Injury (%) - 20-22 DAA ECHCG: post-emergence foliar
Description: Seeds or nutlets of the desired test plant species were planted in a soil matrix prepared by mixing a loam or sandy loam soil (e.g., 28.6 percent silt, 18.8 percent clay, and 52.6 percent sand, with a pH of about 5.8 and an organic matter content of about 1.8 percent) and calcareous grit in an 80 to 20 ratio. The soil matrix was contained in plastic pots with a surface area of 84.6 square centimeters (cm^2). When required to ensure good germination and healthy plants, a fungicide treatment and/or other chemical or physical treatment was applied. The plants were grown for 8-22 days in a greenhouse with an approximate 14 hr photoperiod which was maintained at about 29° C. during the day and 26° C. during the night. Nutrients (Peters Excel 15-5-15 5-Ca 2-Mg and iron chelate) were applied in the irrigation solution as needed and water was added on a regular basis. Supplemental lighting was provided with overhead metal halide 1000-Watt lamps as necessary. The plants were employed for testing when they reached the second or third true leaf stage.
Treatments consisted of the acid or esters of 4-amino-3-chloro-5-fluoro-6-(4-chloro-2-fluoro-3-methoxy-phenyl)pyridine-2-carboxylic acid (compound A) and various safener components alone and in combination. Forms of compound A were applied on an acid equivalent basis. Safener components were applied on an active ingredient or acid equivalent basis depending on the compound.
Treatment requirements were calculated based upon the rates being tested, the concentration of active ingredient or acid equivalent in the formulation, and a 12 mL application volume at a rate of 187 L/ha.
For treatments comprised of formulated compounds, measured amounts of compounds were placed individually in 25 mL glass vials and diluted in a volume of 1.25% (v/v) Agri-dex crop oil concentrated to obtain 12× stock solutions. […] Application solutions were prepared by adding an appropriate amount of each stock solution (e.g., 1 mL) and diluted to the appropriate final concentrations with the addition of 10 mL of an aqueous mixture of 1.25% (v/v) Agri-dex crop oil concentrate so that the final spray solutions contained 1.25% (v/v) Agri-dex crop oil concentrate.
For treatments comprised of technical compounds, weighed amounts were placed individually in 25 mL glass vials and dissolved in a volume of 97:3 v/v acetone/DMSO to obtain 12× stock solutions. […] Application solutions were prepared by adding an appropriate amount of each stock solution (e.g., 1 mL) and diluted to the appropriate final concentrations with the addition of 10 mL of an aqueous mixture of 1.5% (v/v) Agri-dex crop oil concentrate so that the final spray solutions contained 1.25% (v/v) Agri-dex crop oil concentrate. When technical materials were used, the concentrated stock solutions were added to the spray solutions so that the final acetone and DMSO concentrations of the application solutions were […], respectively.
For treatments comprised of formulated and technical compounds, weighed amounts of the technical materials were placed individually in 25 mL glass vials and dissolved in a volume of 97:3 v/v acetone/DMSO to obtain 12× stock solutions, and measured amounts of the formulated compounds were placed individually in 25 mL glass vials and diluted in a volume of 1.5% (v/v) Agri-dex crop oil concentrate or water to obtain 12× stock solutions. […] Application solutions were prepared by adding an appropriate amount of each stock solution (e.g., 1 mL) and diluted to the appropriate final concentrations with the addition of an appropriate amount of an aqueous mixture of 1.5% (v/v) Agri-dex crop oil concentrate so that the final spray solutions contained 1.25% (v/v) Agri-dex crop oil concentrate. When required, additional water and/or 97:3 v/v acetone/DMSO was added to individual application solutions so that the final acetone and DMSO concentrations of the application solutions being compared were 8.1% and 0.25%, respectively. […]

Q: For COc1c(Cl)ccc(-c2nc(C(=O)O)c(Cl)c(N)c2F)c1F [Acid, 4-amino-3-chloro-6-(4-chloro-2-fluoro-3-methoxyphenyl)-5-fluoropyridine-2-carboxylic acid], which pest or weed control at 140 g/ha (trial of Tables 3,4,6,10,12,14) is on record?
A: 98%

Q: And the pest or weed control at 140 g/ha (trial of Tables 5,9,11,13)?
A: 96%

Q: What about the “Mean Visual Injury (%) - 20-22 DAA ECHCG” value (2 g ae/ha) of the same molecule?
A: 57%

Q: And the “Mean Visual Injury (%) - 20-22 DAA ECHCG” value (4 g ae/ha)?
A: 81%

Q: What about the “Mean Visual Injury (%) - 20-22 DAA ECHCG” value (8 g ae/ha) of the same molecule?
A: 91%

Q: And the “Mean Visual Injury (%) - 20-22 DAA ECHCG” value (16 g ae/ha)?
A: 95%

Q: What about the “Mean Visual Injury (%) - 20-22 DAA ECHCG” value (32 g ae/ha) of the same molecule?
A: 96%

Q: Which pest or weed control at 140 g/ha (trial of Tables 3,4,6,10,12,14) does the source give for COc1c(Cl)ccc(-c2nc(C(=O)OCc3ccccc3)c(Cl)c(N)c2F)c1F [Benzyl] here?
A: 98%

Q: And the pest or weed control at 140 g/ha (trial of Tables 5,9,11,13)?
A: 99%

Q: What about the “Mean Visual Injury (%) - 20-22 DAA ECHCG” value (2 g ae/ha) of the same molecule?
A: 63%

Q: What about the “Mean Visual Injury (%) - 20-22 DAA ECHCG” value (4 g ae/ha) of the same molecule?
A: 91%

Q: And the “Mean Visual Injury (%) - 20-22 DAA ECHCG” value (8 g ae/ha)?
A: 94%

Q: What about the “Mean Visual Injury (%) - 20-22 DAA ECHCG” value (16 g ae/ha) of the same molecule?
A: 95%

Q: And the “Mean Visual Injury (%) - 20-22 DAA ECHCG” value (32 g ae/ha)?
A: 96%
